Assay results taken from patent US11040959B2, “Diprovocims: a new and potent class of TLR agonists” (The Scripps Research Institute, priority 2016, dated 2021).
Where two headings read alike, the source gives them in different places. Each block holds one compound with its values, some of them ahead of it.

Tests used:
Assay type in all cases: cell-based
[1] = system: differentiated human THP-1 cells; test: stimulated release of TNF-α from differentiated human THP-1 cells (ELISA, dose-response)
Summary of the method: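 Human THP-1 cells were PMA-differentiated toward macrophages, and stimulated TNF-α release was measured by ELISA. EC50 values were taken from dose-response curves.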

mouse macrophages = test: stimulated release of TNF-α from mouse macrophages; settings: for EC50: Macrophage
Summary of the method: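 EC50 derived from dose-response curves for stimulated TNF-α release from mouse macrophages.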

[2] = system: TNF-α release stimulated by diprovocim-1 (3); test: antagonist test: inhibition of the activity of diprovocim-1 (3) on co-administration; settings: co-administered at 5 μM
[3] = Homo sapiens, THP-1, running text, read-out: EC50, stimulated release of TNF-α from differentiated human THP-1 cells
[4] = Mus musculus, read-out: EC50, stimulated release of TNF-α from mouse macrophages
[5] = Homo sapiens, THP-1, table of 133-139 (two lipid side chains), human THP-1 cells, read-out: EC50 (nM) (THP-1)
[6] = table of 133-139 (two lipid side chains), mouse macrophages, read-out: EC50 (nM) (mouse)
[7] = Homo sapiens, THP-1, table of 140-146 (four lipid side chains), human THP-1 cells, read-out: EC50 (nM) (THP-1)
[8] = table of 140-146 (four lipid side chains), mouse macrophages, read-out: EC50 (nM) (mouse)
[9] = Homo sapiens, THP-1, table of functionalized derivatives 147-151, human THP-1 cells, read-out: EC50 (nM) (THP-1)
[10] = table of functionalized derivatives 147-151, mouse macrophages, read-out: EC50 (nM) (mouse)

SMILES: CCCCCCCCNC(=O)[C@@H]1CN(C(=O)c2ccc(C(=O)N3C[C@@H](C(=O)N[C@H]4C[C@@H]4c4ccccc4)[C@H](C(=O)N[C@H]4C[C@@H]4c4ccccc4)C3)cc2)C[C@H]1C(=O)NCCCCCCCC [Compound 137, (3S,4S)-1-(4-((3S,4S)-3,4-Bis(((1S,2R)-2-phenylcyclopropyl)carbamoyl)pyrrolidine-1-carbonyl)benzoyl)-N^3,N^4-dioctylpyrrolidine-3,4-dicarboxamide]
EC50 [1, 5]: 0.17 nM
EC50 (mouse macrophages; [6]): 10 nM

SMILES: CCCCCCCCCCCCCCNC(=O)[C@@H]1CN(C(=O)c2ccc(C(=O)N3C[C@@H](C(=O)NCCCCCCCCCCCCCC)[C@H](C(=O)NCCCCCCCCCCCCCC)C3)cc2)C[C@H]1C(=O)NCCCCCCCCCCCCCC [Compound 141, (3S,3′S,4S,4′S)-1,1′-Terephthaloylbis(N^3,N^4-ditetradecylpyrrolidine-3,4-dicarboxamide)]
EC50 [1, 7]: > 5000 nM
EC50 (mouse macrophages; [8]): > 5000 nM

SMILES: CCCCCCCCCCNC(=O)[C@@H]1CN(C(=O)c2ccc(C(=O)N3C[C@@H](C(=O)NCCCCCCCCCC)[C@H](C(=O)NCCCCCCCCCC)C3)cc2)C[C@H]1C(=O)NCCCCCCCCCC [Compound 143, (3S,3′S,4S,4′S)-1,1′-Terephthaloylbis(N^3,N^4-didecylpyrrolidine-3,4-dicarboxamide)]
EC50 [1, 7]: > 5000 nM
EC50 (mouse macrophages; [8]): > 5000 nM

SMILES: CCCCCCNC(=O)[C@@H]1CN(C(=O)c2ccc(C(=O)N3C[C@@H](C(=O)NCCCCCC)[C@H](C(=O)NCCCCCC)C3)cc2)C[C@H]1C(=O)NCCCCCC [Compound 145, (3S,3′S,4S,4′S)-1,1′-Terephthaloylbis(N^3,N^4-dihexylpyrrolidine-3,4-dicarboxamide)]
EC50 [1, 7]: > 5000 nM
EC50 (mouse macrophages; [8]): > 5000 nM

SMILES: CC(C)(C)OC(=O)COc1cc(C(=O)N2C[C@@H](C(=O)N[C@H]3C[C@@H]3c3ccccc3)[C@H](C(=O)N[C@H]3C[C@@H]3c3ccccc3)C2)ccc1C(=O)N1C[C@@H](C(=O)N[C@H]2CC2c2ccccc2)[C@H](C(=O)N[C@H]2C[C@@H]2c2ccccc2)C1 (stereo partly drawn) [Compound 147, tert-Butyl 2-(2,5-Bis((3S,4S)-3,4-bis(((1S,2R)-2-phenylcyclopropyl)carbamoyl)-pyrrolidine-1-carbonyl)phenoxy)acetate]
EC50 [1, 9]: 40 nM
EC50 (mouse macrophages; [10]): 260 nM

SMILES: CC(C)(C)OC(=O)CCOCCOCCOCCNC(=O)COc1cc(C(=O)N2C[C@@H](C(=O)N[C@H]3C[C@@H]3c3ccccc3)[C@H](C(=O)N[C@H]3C[C@@H]3c3ccccc3)C2)ccc1C(=O)N1C[C@@H](C(=O)N[C@H]2C[C@@H]2c2ccccc2)[C@H](C(=O)N[C@H]2C[C@@H]2c2ccccc2)C1 [Compound 149, tert-Butyl 1-(2,5-Bis((3S,4S)-3,4-bis(((1S,2R)-2-phenylcyclopropyl)carbamoyl)pyrrolidine-1-carbonyl)phenoxy)-2-oxo-6,9,12-trioxa-3-azapentadecan-15-oate]
EC50 [1, 9]: 20 nM
EC50 (mouse macrophages; [10]): 150 nM

SMILES: CC(C)(C)OC(=O)COCCOCCOCC(=O)Nc1cc(C(=O)N2C[C@@H](C(=O)N[C@H]3C[C@@H]3c3ccccc3)[C@H](C(=O)N[C@H]3C[C@@H]3c3ccccc3)C2)ccc1C(=O)N1C[C@@H](C(=O)N[C@H]2C[C@@H]2c2ccccc2)[C@H](C(=O)N[C@H]2C[C@@H]2c2ccccc2)C1 [Compound 150, tert-Butyl 2-(2-(2-(2-((2,5-Bis((3S,4S)-3,4-bis(((1S,2R)-2-phenylcyclopropyl)carbamoyl)-pyrrolidine-1-carbonyl)phenyl)amino)-2-oxoethoxy)ethoxy)ethoxy)acetate]
EC50 [1, 9]: 15 nM
EC50 (mouse macrophages; [10]): 130 nM

SMILES: O=C(COc1cc(C(=O)N2C[C@@H](C(=O)N[C@H]3C[C@@H]3c3ccccc3)[C@H](C(=O)N[C@H]3C[C@@H]3c3ccccc3)C2)ccc1C(=O)N1C[C@@H](C(=O)N[C@H]2C[C@@H]2c2ccccc2)[C@H](C(=O)N[C@H]2C[C@@H]2c2ccccc2)C1)NCC(=O)N[C@@H](CO)C(=O)O [Compound 151, (2-(2,5-Bis((3S,4S)-3,4-bis(((1S,2R)-2-phenylcyclopropyl)carbamoyl)pyrrolidine-1-carbonyl)phenoxy)acetyl)glycyl-L-serine]
EC50 ([1]; table of functionalized derivatives 147-151, human THP-1 cells, read-out: EC50 (nM) (THP-1)): 0.24 nM
EC50 (mouse macrophages; [10]): 270 nM

More lines, main results first:

EC50 [1, 3]: > 5000 nM
EC50 (mouse macrophages; [4]): > 5000 nM
SMILES: O=C(NCCc1ccccc1)[C@@H]1CN(C(=O)c2ccc(C(=O)N3C[C@@H](C(=O)NCCc4ccccc4)[C@H](C(=O)NCCc4ccccc4)C3)cc2)C[C@H]1C(=O)NCCc1ccccc1 [Compound 8, trans,trans-1,1′-Terephthaloylbis-(N^3, N^4-diphenethylpyrrolidine-3,4-dicarboxamide)]
activity in stimulating TNF-α release from human THP-1 cells (in words) ([1]; tested up to 5 μM where stated): inactive
antagonist activity, inhibiting the activity of diprovocim-1 (3) [2]: incapable of acting as an antagonist

EC50 [1, 3]: 0.18 nM
EC50 [1, 5]: 0.18 nM
EC50 (mouse macrophages; [6]): 4 nM
EC50 (mouse macrophages; [4]): 4 nM
SMILES: CCCCCCNC(=O)[C@@H]1CN(C(=O)c2ccc(C(=O)N3C[C@@H](C(=O)N[C@H]4C[C@@H]4c4ccccc4)[C@H](C(=O)N[C@H]4C[C@@H]4c4ccccc4)C3)cc2)C[C@H]1C(=O)NCCCCCC [Compound 138, (3S,4S)-1-(4-((3S,4S)-3,4-Bis(((1S,2R)-2-phenylcyclopropyl)carbamoyl)-pyrrolidine-1-carbonyl)benzoyl)-N^3,N^4-dihexylpyrrolidine-3,4-dicarboxamide]
fold less active/potent than diprovocim-1 (3) ([1]; human THP-1 cells): 2 fold
potency differential human THP-1 cells versus mouse macrophages ([1]; ratio of mouse to human potency): 20 fold
fold less potent/effective than diprovocim-1 (mouse macrophages; mouse macrophages): 4 fold

EC50 [1, 5]: 50 nM
EC50 (mouse macrophages; [6]): 360 nM
SMILES: CCCCNC(=O)[C@@H]1CN(C(=O)c2ccc(C(=O)N3C[C@@H](C(=O)N[C@H]4C[C@@H]4c4ccccc4)[C@H](C(=O)N[C@H]4C[C@@H]4c4ccccc4)C3)cc2)C[C@H]1C(=O)NCCCC [Compound 139, (3S,4S)-1-(4-((3S,4S)-3,4-Bis(((1S,2R)-2-phenylcyclopropyl)carbamoyl)pyrrolidine-1-carbonyl)benzoyl)-N^3,N^4-dibutylpyrrolidine-3,4-dicarboxamide]

EC50 [1, 7]: > 5000 nM
EC50 (mouse macrophages; [8]): > 5000 nM
SMILES: CCCCCCCCCCCCCCCCNC(=O)[C@@H]1CN(C(=O)c2ccc(C(=O)N3C[C@@H](C(=O)NCCCCCCCCCCCCCCCC)[C@H](C(=O)NCCCCCCCCCCCCCCCC)C3)cc2)C[C@H]1C(=O)NCCCCCCCCCCCCCCCC [Compound 140, (3S,3′S,4S,4′S)-1,1′-Terephthaloylbis(N^3,N^4-dihexadecylpyrrolidine-3,4-dicarboxamide)]

EC50 [1, 7]: > 5000 nM
EC50 (mouse macrophages; [8]): > 5000 nM
SMILES: CCCCCCCCCCCCNC(=O)[C@@H]1CN(C(=O)c2ccc(C(=O)N3C[C@@H](C(=O)NCCCCCCCCCCCC)[C@H](C(=O)NCCCCCCCCCCCC)C3)cc2)C[C@H]1C(=O)NCCCCCCCCCCCC [Compound 142, (3S,3′S,4S,4′S)-1,1′-Terephthaloylbis(N^3,N^4-didodecylpyrrolidine-3,4-dicarboxamide)]

EC50 [1, 7]: > 5000 nM
EC50 (mouse macrophages; [8]): > 5000 nM
SMILES: CCCCCCCCNC(=O)[C@@H]1CN(C(=O)c2ccc(C(=O)N3C[C@@H](C(=O)NCCCCCCCC)[C@H](C(=O)NCCCCCCCC)C3)cc2)C[C@H]1C(=O)NCCCCCCCC [Compound 144, (3S,3′S,4S,4′S)-1,1′-Terephthaloylbis(N^3,N^4-dioctylpyrrolidine-3,4-dicarboxamide)]

EC50 [1, 7]: > 5000 nM
EC50 (mouse macrophages; [8]): > 5000 nM
SMILES: CCCCNC(=O)[C@@H]1CN(C(=O)c2ccc(C(=O)N3C[C@@H](C(=O)NCCCC)[C@H](C(=O)NCCCC)C3)cc2)C[C@H]1C(=O)NCCCC [Compound 146, (3S,3′S,4S,4′S)-1,1′-Terephthaloylbis(N^3,N^4-dibutylpyrrolidine-3,4-dicarboxamide)]

EC50 [1, 9]: 190 nM
EC50 (mouse macrophages; [10]): > 5000 nM
SMILES: CC(C)(C)OC(=O)CCOCCOCCOCCOc1cc(C(=O)N2C[C@@H](C(=O)N[C@H]3C[C@@H]3c3ccccc3)[C@H](C(=O)N[C@H]3C[C@@H]3c3ccccc3)C2)ccc1C(=O)N1C[C@@H](C(=O)N[C@H]2C[C@@H]2c2ccccc2)[C@H](C(=O)N[C@H]2C[C@@H]2c2ccccc2)C1 [Compound 148, tert-Butyl 3-(2-(2-(2-(2,5-Bis((3S,4S)-3,4-bis(((1S,2R)-2-phenyl-cyclopropyl)carbamoyl)-pyrrolidine-1-carbonyl)-phenoxy)ethoxy)ethoxy)-ethoxy)propanoate]
